{"source": "patent US20260335299A1", "about": "“SUBSTITUTED OXOISOINDOLINYL PIPERIDINE-2,6-DIONE COMPOUND AS ANTICANCER AGENT” (BRISTOL-MYERS SQUIBB COMPANY, priority 2023, published 2026)", "key": {"[1]": {"biological_target": "IKZF2 Helios (Homo sapiens, UniProt Q96SW2+Q9UKS7)", "sequence (Q9UKS7 whole entry)": "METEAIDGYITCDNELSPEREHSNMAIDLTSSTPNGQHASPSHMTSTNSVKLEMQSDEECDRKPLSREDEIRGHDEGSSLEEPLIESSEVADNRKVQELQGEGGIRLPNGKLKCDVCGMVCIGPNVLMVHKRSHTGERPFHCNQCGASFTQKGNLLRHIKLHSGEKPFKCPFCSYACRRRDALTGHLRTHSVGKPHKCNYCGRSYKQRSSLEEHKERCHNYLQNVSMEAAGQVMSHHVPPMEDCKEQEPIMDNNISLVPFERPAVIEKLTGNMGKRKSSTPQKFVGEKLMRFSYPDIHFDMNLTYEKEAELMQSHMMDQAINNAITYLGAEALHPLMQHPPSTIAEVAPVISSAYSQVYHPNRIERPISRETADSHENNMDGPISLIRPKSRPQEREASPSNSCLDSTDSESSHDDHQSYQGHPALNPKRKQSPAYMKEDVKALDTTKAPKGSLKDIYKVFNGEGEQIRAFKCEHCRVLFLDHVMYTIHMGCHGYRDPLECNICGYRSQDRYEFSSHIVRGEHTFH", "sequence (Q96SW2 whole entry)": "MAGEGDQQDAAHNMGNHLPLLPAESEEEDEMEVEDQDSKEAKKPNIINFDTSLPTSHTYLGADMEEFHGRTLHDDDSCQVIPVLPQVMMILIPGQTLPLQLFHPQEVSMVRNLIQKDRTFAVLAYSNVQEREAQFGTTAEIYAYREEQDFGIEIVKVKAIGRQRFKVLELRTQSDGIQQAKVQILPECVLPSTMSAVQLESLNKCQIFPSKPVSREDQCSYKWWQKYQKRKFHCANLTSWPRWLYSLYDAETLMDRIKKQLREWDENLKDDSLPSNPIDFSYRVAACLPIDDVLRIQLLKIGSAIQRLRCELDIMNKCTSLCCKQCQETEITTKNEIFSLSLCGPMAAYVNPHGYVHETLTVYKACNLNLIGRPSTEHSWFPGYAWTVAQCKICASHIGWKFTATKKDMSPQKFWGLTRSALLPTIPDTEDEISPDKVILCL", "sequence (Q16531 whole entry partner)": "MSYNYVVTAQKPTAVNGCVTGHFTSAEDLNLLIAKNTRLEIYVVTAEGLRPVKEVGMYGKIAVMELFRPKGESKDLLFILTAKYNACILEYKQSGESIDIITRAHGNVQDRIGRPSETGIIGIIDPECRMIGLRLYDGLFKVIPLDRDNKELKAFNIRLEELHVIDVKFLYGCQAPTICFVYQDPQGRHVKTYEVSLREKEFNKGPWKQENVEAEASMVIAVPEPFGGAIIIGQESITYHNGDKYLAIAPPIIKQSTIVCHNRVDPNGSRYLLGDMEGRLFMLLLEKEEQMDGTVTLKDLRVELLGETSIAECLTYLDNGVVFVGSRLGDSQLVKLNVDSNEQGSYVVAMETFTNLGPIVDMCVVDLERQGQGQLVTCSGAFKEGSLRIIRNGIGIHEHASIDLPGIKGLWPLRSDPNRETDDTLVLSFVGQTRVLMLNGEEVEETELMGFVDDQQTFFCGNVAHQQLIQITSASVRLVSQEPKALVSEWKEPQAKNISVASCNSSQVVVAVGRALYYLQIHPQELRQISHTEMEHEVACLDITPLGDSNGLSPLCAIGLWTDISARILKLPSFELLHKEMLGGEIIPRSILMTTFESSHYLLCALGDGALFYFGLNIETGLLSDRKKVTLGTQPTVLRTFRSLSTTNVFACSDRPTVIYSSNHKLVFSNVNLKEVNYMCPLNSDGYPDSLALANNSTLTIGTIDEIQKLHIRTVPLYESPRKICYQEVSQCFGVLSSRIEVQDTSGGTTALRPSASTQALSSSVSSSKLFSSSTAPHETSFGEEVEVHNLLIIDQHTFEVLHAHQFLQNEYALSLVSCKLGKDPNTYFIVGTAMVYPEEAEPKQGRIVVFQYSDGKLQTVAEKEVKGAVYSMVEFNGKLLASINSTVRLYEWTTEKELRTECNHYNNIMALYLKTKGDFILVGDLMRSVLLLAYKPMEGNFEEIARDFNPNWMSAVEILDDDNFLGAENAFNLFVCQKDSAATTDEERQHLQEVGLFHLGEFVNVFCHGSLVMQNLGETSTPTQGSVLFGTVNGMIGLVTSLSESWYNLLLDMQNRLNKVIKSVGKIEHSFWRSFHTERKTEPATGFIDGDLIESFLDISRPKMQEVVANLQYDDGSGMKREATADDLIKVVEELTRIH", "assay": "Human Regulatory T Cell Degradation Assay (Helios)", "type": "cell-based", "set-up": "Human CD4+ T cells were isolated from fresh healthy leukopaks; endogenous in cells; host or cells: FACS-sorted primary human regulatory T cells from healthy leukopaks", "conditions": "human regulatory T cells, 20 h", "method": "Cryopreserved human regulatory T cells were thawed in RPMI+10% FBS+20 ng/mL IL-2. After being spun at 1200 rpm for 5 mins, the cells were resuspended in RPMI+10% FBS+20 ng/ml and rested at 37° C. with 5% CO2 for 3 hours. The cells were then plated at 40,000 cells/well in 40 μL RPMI+10% FBS+20 ng/mL human IL-2 in a 384 well cell culture plate prior to using acoustic dispensing technology (ECHO 555) for adding compounds of interest. Cell cultures were incubated for 20 hours at 37° C. and 5% CO2. In order to facilitate analysis, cell cultures were spun down at 1200 rpm for 5 minutes and the supernatant was discarded using an EL406 plate washer. After washing three times with […] PBS, cell pellets were resuspended in 50 μL of […] viability staining solution (Life Technologies, Cat #L34975) and incubated for 30 minutes on ice protected from light. Cells were washed three times with 70 μL PBS+0.5% BSA using an EL406 plate washer. […] Stained cells were resuspended in 30 μL of flow cytometry staining buffer (PBS+0.5% BSA) and analyzed using an Intellicyt Ique Plus flow cytometer.\nTable B-1 lists the maximum observed degradation of the IKZF1 protein and IKZF2 protein as measured in the Human Regulatory T Cell Degradation assay. […]"}, "[2]": {"biological_target": "IKZF3 Aiolos (Homo sapiens, UniProt Q96SW2+Q9UKT9)", "sequence (Q9UKT9 whole entry)": "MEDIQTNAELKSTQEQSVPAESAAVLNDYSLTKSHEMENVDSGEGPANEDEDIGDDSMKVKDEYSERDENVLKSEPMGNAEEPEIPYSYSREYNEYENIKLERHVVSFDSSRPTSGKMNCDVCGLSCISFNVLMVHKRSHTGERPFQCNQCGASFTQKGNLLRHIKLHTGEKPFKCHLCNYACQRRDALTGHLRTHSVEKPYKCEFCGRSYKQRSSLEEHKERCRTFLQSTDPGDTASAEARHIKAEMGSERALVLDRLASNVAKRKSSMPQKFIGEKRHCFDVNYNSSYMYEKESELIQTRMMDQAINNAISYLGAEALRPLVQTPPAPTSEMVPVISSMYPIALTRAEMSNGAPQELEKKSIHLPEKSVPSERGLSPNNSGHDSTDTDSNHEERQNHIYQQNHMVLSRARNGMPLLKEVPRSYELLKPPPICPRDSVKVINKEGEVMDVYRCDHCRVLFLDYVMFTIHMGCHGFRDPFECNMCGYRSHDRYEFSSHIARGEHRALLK", "sequence (Q96SW2 whole entry)": "as the sequence (Q96SW2 whole entry) above", "sequence (Q16531 whole entry partner)": "as the sequence (Q16531 whole entry partner) above", "assay": "Human CD8+ T Cell Reprogramming (Degradation) Assay (Aiolos)", "type": "cell-based", "set-up": "Cryopreserved healthy donor human peripheral blood mononuclear cells (PBMC); endogenous in cells; host or cells: CD8+ T cells within healthy donor human PBMC", "conditions": "24 h", "method": "Cryopreserved healthy donor human peripheral blood mononuclear cells (PBMC) from healthy donors were thawed and seeded at 500,000 cells/well of 96-well round bottom plates in RPMI 1640 media (Gibco) supplemented with 10% FBS, Pen/Strep (Gibco), MEM-NEAA (Gibco), and sodium pyruvate (Gibco). Cells were treated with titrated doses of compound for 24 hours at 37° C., 5% CO2 before analyzing by flow cytometry.\nFor flow cytometry staining, cells were washed twice with flow cytometry staining buffer (Thermo Fisher) and incubated in Human Tru-stain Fc block (Biolegend) for 10 minutes before adding eFluor780 viability dye (Thermo Fisher) and surface marker antibody cocktail containing LD-eFluor780, CD3-BUV-395, CD4-BUV805, CD8-FITC, and CD25-BV605 for 30 minutes at 4° C. Cells were then fixed and permeabilized by incubation with permeabilization buffer (eBioscience FoxP3 buffer set 00-5523-00) for 30 minutes at 4° C. as per the kit manufacturer's instructions. Cells were washed twice with the Perm/Wash buffer supplied in the kit as per the manufacturer's instructions and incubated overnight at 4° C. with an intracellular antibody cocktail comprised of antibodies specific for the transcription factors (i.e., Foxp3-BV421, HELIOS-PE-Cy7, EOS-PE, IKAROS-PECF594, AIOLOS-AF647). Cells were washed twice with Perm/Wash buffer and resuspended in flow cytometry staining buffer (Thermo Fisher) prior to acquisition. Sample acquisition and analysis was performed using a BD LSRFortessa (BD Biosciences) flow cytometer. Single-stain controls for each fluorochrome were prepared using UltraComp eBead Compensation Beads (Thermo Fisher). Data were analyzed using FlowJo version 10 and GraphPad Prism Software.\nTable D-1 lists the maximum observed degradation of the IKZF1 protein and IKZF3 protein as measured in the Human CD8^+ T Cell Reprogramming assay. The results in Table D-1 were rounded to two digits. In the Human CD8^+ T Cell Reprogramming assay, a value of 100% indicated no detectable protein remaining or complete degradation of the protein; and a value of 0% indicated no detectable degradation of the protein by the test compound."}}, "note": "Where two headings read alike, the source gives them in different places."}
{"smiles": "Nc1nc(-c2ccc3c(c2F)CN(C2CCC(=O)NC2=O)C3=O)ccc1CN1CC(C2CCC(F)(F)CC2)C1", "note": "(stereo not drawn) [Example 1, 3-(5-(6-Amino-5-((3-(4,4-difluorocyclohexyl)azetidin-1-yl)methyl)pyridin-2-yl)-4-fluoro-1-oxoisoindolin-2-yl) piperidine-2,6-dione]", "values": [{"measurement": "Dmax", "setting": "[1]; Regulatory T cell, read-out: IKZF2 Helios max % deg. observed", "value": 96, "unit": "%"}, {"measurement": "DC50", "setting": "[1]; concentration reducing protein level by 50% compared to DMSO alone", "value": 0.1, "unit": "nM"}, {"measurement": "Dmax", "setting": "[2]; summary table, Human CD8+ T Cell Reprogramming Assay (Table D-1), read-out: IKZF3 Aiolos max % deg. observed (Table E)", "value": "80 to 84", "unit": "%"}, {"measurement": "DC50", "setting": "[2]; CD8+ T cells, human PBMC, concentration reducing protein level by 50% compared to DMSO alone", "value": "33 to 36", "unit": "nM"}, {"measurement": "Dmax", "setting": "[2]; CD8+ T cells, human PBMC, read-out: IKZF3 Aiolos Maximum Observed Degradation", "value": "80 to 84", "unit": "%"}, {"measurement": "Dmax", "setting": "[2]; human, text summary of Table D-1, read-out: decreased the level of IKZF3 (Aiolos)", "value": "≥ 80", "unit": "%"}]}
